Results as given in patent US8936806B2, “Periostin induces proliferation of cardiomyocytes and promotes cardiac regeneration” (Children's Medical Center Corporation, priority 2007, dated 2015).

Assays:
[1] = test system: differentiated cardiomyocytes; assay: Hypertrophy by [3H]leucine uptake; type: cell-based, rat; conditions: phenylephrine 10 mM [sic]; all time points tested
Source text: Induction of the fetal gene program is accompanied by increased protein synthesis leading to cardiomyocyte hypertrophy. We assessed cardiomyocyte hypertrophy by measuring uptake of [^3H]leucine.

[2] = test system: atrial natriuretic factor (ANF); assay: Transcription of atrial natriuretic factor by RT-PCR in neonatal cardiomyocytes; type: cell-based, rat; conditions: 72 hr stimulation
Description: RNA was prepared using Trizol reagent (Invitrogen) from neonatal rat ventricular cardiomyocytes after 72 hr of stimulation. Complementary DNA was synthesized from 2 μg RNA with the SuperScriptIII kit (Invitrogen) using oligo-dT primers. One μL cDNA was used as template for 20 μL PCR-reactions (95° C. for 2 min, 30 cycles of 95° C. for 2 min, 55° C. for 2 min, 72° C. for 5 min, followed by 72° C. for 10 min). Oligonucleotide primers used for detection of ANF were F: 5′-[…]-3′ (Seq ID No. 2), R: 5′-[…]-3′ (Seq ID No. 3), β-actin were F: 5′-[…]-3′ (Seq ID No. 4), R: 5′-[…]-3′ (Seq ID No. 5), […] were F: 5′-[…]-3′ (Seq ID No. 6), R: 5′-[…]-3′ (Seq ID No. 7); SMA were F: 5′-[…]-3′ (Seq ID No. 8), R: 5′-[…]-3′ (Seq ID No. 9); SERCA2 were F: 5′-[…]-3′ (Seq ID No. 10), R: 5′-[…]-3′ (Seq ID No. 11), and for GAPDH: 5′-[…]-3′ (Seq ID No. 12), R: 5′-[…]-3′ (Seq ID No. 13).

[3] = test system: adult ventricular cardiomyocytes; assay: Transcription of fetal gene program (RT-PCR) in adult ventricular cardiomyocytes; type: cell-based, rat
[4] = test system: primary neonatal rat ventricular cardiomyocytes; assay: DNA synthesis, mitosis and cytokinesis in primary neonatal rat ventricular cardiomyocytes; type: cell-based; conditions: periostin plus FGF
Source text: (§1) Primary neonatal rat ventricular cardiomyocytes were isolated using the Neomyts kit (Cellutron, Highland Park, N.J.), seeded at a density of 10^5 cells/cm^2 onto gelatin-coated cover slips, stimulated for 3 days, and labeled with BrdU for the terminal 2 days. Primary adult ventricular cardiomyocytes were isolated from male (300 gm) Wistar rats (Charles River Laboratories) and maintained as described (Engel, F. B. et al. p38 MAP kinase inhibition enables proliferation of adult mammalian cardiomyocytes. Genes Dev 19, 1175-87 (2005)). Adult cardiomyocytes were stimulated daily for 9 days and labeled with 30 μM BrdU for the terminal 3 days. Cardiomyocytes were stimulated with periostin (500 ng/mL) and FGF (100 ng/mL). Inhibiting antibodies were added at a concentration of 10 μg/mL, cRGD at 10 μM, U0126 at 10 μM, PD98059 at 1 μM, LY294002 at 10 μM, and Wortmannin at 0.1 μM 30 min prior to stimulation. The vehicle used to dissolve factors or chemicals was added to unstimulated samples, which were then processed together with the test samples.
(§2) DNA-synthesis was analyzed by visualization of BrdU uptake and cytokinesis was determined by detection of the cleavage furrow and the midbody with an antibody against aurora B kinase as described (Engel, F. B. et al. p38 MAP kinase inhibition enables proliferation of adult mammalian cardiomyocytes. Genes Dev 19, 1175-87 (2005)). Signals were visualized with secondary antibodies conjugated to Alexa 488, Alexa 546, Alexa 594, and Alexa 647 (Invitrogen). Nuclei were visualized with 4′,6′-diamidino-2-phenylindole (DAPI, Invitrogen). For image acquisition, the value for γ was set at 1 and the lookup table settings were linear.

[5] = test system: primary adult rat ventricular cardiomyocytes; assay: Cytokinesis (aurora B kinase) in primary adult rat ventricular cardiomyocytes; type: cell-based; conditions: 9 days stimulation
Source text: as §1, §2

[6] = test system: primary adult rat ventricular cardiomyocytes; assay: DNA synthesis (BrdU uptake, immunofluorescence) in primary adult rat ventricular cardiomyocytes; type: cell-based
Source text: Primary neonatal rat ventricular cardiomyocytes were isolated using the Neomyts kit (Cellutron, Highland Park, N.J.), seeded at a density of 10^5 cells/cm^2 onto gelatin-coated cover slips, stimulated for 3 days, and labeled with BrdU for the terminal 2 days. Primary adult ventricular cardiomyocytes were isolated from male (300 gm) Wistar rats (Charles River Laboratories) and maintained as described (Engel, F. B. et al. p38 MAP kinase inhibition enables proliferation of adult mammalian cardiomyocytes. Genes Dev 19, 1175-87 (2005)). Adult cardiomyocytes were stimulated daily for 9 days and labeled with 30 μM BrdU for the terminal 3 days. Cardiomyocytes were stimulated with periostin (500 ng/mL) and FGF (100 ng/mL). […] The vehicle used to dissolve factors or chemicals was added to unstimulated samples, which were then processed together with the test samples. DNA-synthesis was analyzed by visualization of BrdU uptake and cytokinesis was determined by detection of the cleavage furrow and the midbody with an antibody against aurora B kinase as described (Engel, F. B. et al. p38 MAP kinase inhibition enables proliferation of adult mammalian cardiomyocytes. Genes Dev 19, 1175-87 (2005)). Signals were visualized with secondary antibodies conjugated to Alexa 488, Alexa 546, Alexa 594, and Alexa 647 (Invitrogen). […] For image acquisition, the value for γ was set at 1 and the lookup table settings were linear. Primary adult rat ventricular cardiomyocytes were grown on gridded cover slips (Electron Microscopy Services, Ft. Washington, Pa.) and imaged in phase contrast at 10× magnification. Cardiomyocytes were transduced with an adenovirus leading to nuclear expression of histone2B-GFP (Shi, Q. & King, R. W. Nature 437, 1038-42 (2005)) under control of the chicken troponin T promoter ([…]. Am J Physiol Cell Physiol 286, […]-64 (2004)). Nuclei were visualized at 10× magnification with a mercury-arc lamp dimmed to 1.5% with a neutral density filter. […] Images of BrdU-positive cardiomyocytes were matched with the corresponding images from before stimulation. For quantification, differentiated cardiomyocytes were defined as striated rod-shaped structures with length/width ratio>1.5.

| Compound | [3H]leucine uptake (hypertrophy) [1] | transcription of atrial natriuretic factor (ANF) [2] | transcription of SERCA2 [3] | transcription of β-MHC, SMA and ANF [3] | effect of co-stimulation with periostin on DNA synthesis [4] | cytokinesis, of all differentiated cardiomyocytes [5] [%] | cardiomyocyte DNA synthesis ([6]; 9 days stimulation (periostin 500 ng/mL, FGF 100 ng/mL), BrdU terminal 3 days) [%] | effect on periostin-induced cardiomyocyte DNA synthesis when added ([6]; FGF 100 ng/ml, SB203580 5 mM or 10 mM as printed) |
| --- | --- | --- | --- | --- | --- | --- | --- | --- |
| CNC[C@H](O)c1cccc(O)c1 [phenylephrine, reference compound] | induced | induced | slightly reduced | increased transcription |  |  |  |  |
| FGF: FGF1 provided by R&D Systems; known stimulus of cardiomyocyte DNA synthesis |  | induced |  |  | additive effect | 0.3±0.1 | 1.3±0.6 | increased |
